Structures are written as SMILES. Some results are limits rather than exact numbers.

Chain of human MLKL (full length) (Q8NB16 whole entry): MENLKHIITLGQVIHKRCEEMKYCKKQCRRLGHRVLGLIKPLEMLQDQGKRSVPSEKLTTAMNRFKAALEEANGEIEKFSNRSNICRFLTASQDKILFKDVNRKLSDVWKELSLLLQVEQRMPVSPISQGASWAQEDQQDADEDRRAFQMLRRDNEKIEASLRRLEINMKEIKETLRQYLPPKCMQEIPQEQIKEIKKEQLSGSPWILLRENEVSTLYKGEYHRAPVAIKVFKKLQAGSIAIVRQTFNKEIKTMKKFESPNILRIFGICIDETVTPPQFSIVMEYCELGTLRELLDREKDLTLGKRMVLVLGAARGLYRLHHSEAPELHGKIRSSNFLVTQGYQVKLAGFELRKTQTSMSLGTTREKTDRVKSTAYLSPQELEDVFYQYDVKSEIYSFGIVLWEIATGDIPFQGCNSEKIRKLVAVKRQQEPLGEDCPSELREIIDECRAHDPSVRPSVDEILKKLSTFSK

For the first test, the target named is human MLKL (full length) (Homo sapiens (Human), UniProt Q8NB16). As to the kind of experiment: KINOMEscan binding assay, human MLKL (full length). As to conditions: KINOMEscan, Table 21; read-out: Human MLKL (full-length) (KD). On the procedure:
Binding affinity of the test compounds for human MLKL (full length), mouse MLKL (full length), human RIPK1 and human RIPK3 was determined using the KINOMEscan™ technology developed by DiscoverX (USA; http://www.discoverx.com). The assay was conducted according to manufacturer instructions.
Kinase assays. For most assays, kinase-tagged T7 phage strains were grown in parallel in 24-well blocks in an E. coli host derived from the BL21 strain. E. coli were grown to log-phase and infected with T7 phage from a frozen stock (multiplicity of infection=0.4) and incubated with shaking at 32° C. until lysis (90-150 minutes). The lysates were centrifuged (6,000×g) and filtered (0.2 μm) to remove cell debris. The remaining kinases were produced in HEK-293 cells and subsequently tagged with DNA for qPCR detection. […] The liganded beads were blocked with excess biotin and washed with blocking buffer (SeaBlock (Pierce), 1% BSA, 0.05% Tween 20, 1 mM DTT) to remove unbound ligand and to reduce non-specific phage binding. […] All reactions were performed in polypropylene 384-well plates in a final volume of 20 μL. […] The kinase concentration in the eluates was measured by qPCR.
An 11-point 3-fold serial dilution of each test compound was prepared in 100% DMSO at 100× final test concentration and subsequently diluted to 1× in the assay (final DMSO concentration=1%). Most Kos were determined using a compound top concentration=30,000 nM.
KD for each test compound was calculated with a standard dose-response curve using the Hill equation (equation (1)): […]
The Hill Slope was set to −1.
Curves were fitted using a non-linear least square fit with the Levenberg-Marquardt algorithm.
Regarding `Cn1nc(-c2ccc(NS(=O)(=O)C(F)F)c(OCc3ccc(F)cc3)c2)c2c(N)ncc(-c3ccncc3)c21` [Compound 14, N-(4-(4-amino-1-methyl-7-(pyridin-4-yl)-1H-pyrazolo[4,3-c]pyridin-3-yl)-2-((4-fluoro-benzyl)oxy)phenyl)-1,1-difluoromethane-sulfonamide], the dissociation constant Kd – broadly, a measure of binding affinity in units of concentration – was under 1 nM.

In the case of `COc1ccc([C@H](C)Oc2cc(-c3nn(C)c4c(-c5cnn(C6CCOCC6)c5)cnc(N)c34)ccc2NS(=O)(=O)C(F)F)cc1` [Compound 129, (S)-N-(4-(4-amino-1-methyl-7-(1-(tetrahydro-2H-pyran-4-yl)-1H-pyrazol-4-yl)-1H-pyrazolo[4,3-c]pyridin-3-yl)-2-(1-(4-methoxy-phenyl)ethoxy)phenyl)-1,1-difluoromethane-sulfonamide], the dissociation constant (Kd) was under 1 nM.

The same test, now with this note: hMLKL, Table 25; read-out: MLKL (KD).
As to `Cc1ncsc1-c1ccc(CNC(=O)[C@@H]2C[C@@H](O)CN2C(=O)[C@@H](NC(=O)CCN2CCC(C#Cc3cnc(N)c4c(-c5ccc(NS(=O)(=O)C(F)F)c(O[C@@H](C)c6ccc(F)cc6)c5)nn(C)c34)CC2)C(C)(C)C)cc1` [Compound 1024, (2S,4R)-1-[(2S)-2-{3-[4-(2-{4-amino-3-[4-(difluoromethanesulfonamido)-3-[(1S)-1-(4-fluorophenyl)ethoxy]phenyl]-1-methyl-1H-pyrazolo[4,3-c]pyridin-7-yl}ethynyl)piperidin-1-yl]propanamido}-3,3-dimethylbutanoyl]-4-hydroxy-N-{[4-(4-methyl-1,3-thiazol-5-yl)phenyl]methyl}pyrrolidine-2-carboxamide], the Kd is under 10 nM.

Take `Cc1ncsc1-c1ccc(CNC(=O)[C@@H]2C[C@@H](O)CN2C(=O)[C@@H](NC(=O)c2ccc(OCCn3cc(-c4cnc(N)c5c(-c6ccc(NS(=O)(=O)C(F)F)c(O[C@@H](C)c7ccc(F)cc7)c6)nn(C)c45)cn3)cc2)C(C)(C)C)cc1` [Compound 1037, (2S,4R)-1-[(2S)-2-({4-[2-(4-{4-amino-3-[4-(difluoromethanesulfonamido)-3-[(1S)-1-(4-fluorophenyl)ethoxy]phenyl]-1-methyl-1H-pyrazolo[4,3-c]pyridin-7-yl}-1H-pyrazol-1-yl)ethoxy]phenyl}formamido)-3,3-dimethylbutanoyl]-4-hydroxy-N-{[4-(4-methyl-1,3-thiazol-5-yl)phenyl]methyl}pyrrolidine-2-carboxamide]: the Kd was in the range of 10 to 1000 nM.

For the compound `Cc1ncsc1-c1ccc(CNC(=O)[C@@H]2C[C@@H](O)CN2C(=O)[C@@H](NC(=O)CCCCN2CCC(C#Cc3cnc(N)c4c(-c5ccc(NS(=O)(=O)C(F)F)c(O[C@@H](C)c6ccc(F)cc6)c5)nn(C)c34)CC2)C(C)(C)C)cc1` [Compound 1063, (2S,4R)-1-[(2S)-2-{5-[4-(2-{4-amino-3-[4-(difluoromethanesulfonamido)-3-[(1S)-1-(4-fluorophenyl)ethoxy]phenyl]-1-methyl-1H-pyrazolo[4,3-c]pyridin-7-yl}ethynyl)piperidin-1-yl]pentanamido}-3,3-dimethylbutanoyl]-4-hydroxy-N-{[4-(4-methyl-1,3-thiazol-5-yl)phenyl]methyl}pyrrolidine-2-carboxamide], the Kd is under 10 nM.

In the case of `Cc1ncsc1-c1ccc(CNC(=O)[C@@H]2C[C@@H](O)CN2C(=O)[C@@H](NC(=O)CCCCOC(=O)c2ccc(-c3cnc(N)c4c(-c5ccc(NS(=O)(=O)C(F)F)c(O[C@@H](C)c6ccc(F)cc6)c5)nn(C)c34)cn2)C(C)(C)C)cc1` [Compound 1065, 4-{[(2S)-1-[(2S,4R)-4-hydroxy-2-({[4-(4-methyl-1,3-thiazol-5-yl)phenyl]methyl}carbamoyl)pyrrolidin-1-yl]-3,3-dimethyl-1-oxobutan-2-yl]carbamoyl}butyl 5-{4-amino-3-[4-(difluoromethanesulfonamido)-3-[(1S)-1-(4-fluorophenyl)ethoxy]phenyl]-1-methyl-1H-pyrazolo[4,3-c]pyridin-7-yl}pyridine-2-carboxylate], the equilibrium dissociation constant (Kd) is under 10 nM.

With `CN[C@@H](C)C(=O)N[C@H](C(=O)N1C[C@H](NC(=O)CCCCn2cc(-c3cnc(N)c4c(-c5ccc(NS(=O)(=O)C(F)F)c(O[C@@H](C)c6ccc(F)cc6)c5)nn(C)c34)cn2)C[C@H]1C(=O)Nc1c(F)cccc1F)C(C)(C)C` [Compound 1080, (2S)-4-[5-(4-{4-amino-3-[4-(difluoromethanesulfonamido)-3-[(1S)-1-(4-fluorophenyl)ethoxy]phenyl]-1-methyl-1H-pyrazolo[4,3-c]pyridin-7-yl}-1H-pyrazol-1-yl)pentanamido]-N-(2,6-difluorophenyl)-1-[(2S)-3,3-dimethyl-2-[(2S)-2-(methylamino)propanamido]butanoyl]pyrrolidine-2-carboxamide], the Kd was under 10 nM.

For `CN[C@@H](C)C(=O)N[C@H](C(=O)N1C[C@H](NC(=O)COCCn2cc(-c3cnc(N)c4c(-c5ccc(NS(=O)(=O)C(F)F)c(O[C@@H](C)c6ccc(F)cc6)c5)nn(C)c34)cn2)C[C@H]1C(=O)Nc1c(F)cccc1F)C(C)(C)C` [Compound 1089, (2S)-4-{2-[2-(4-{4-amino-3-[4-(difluoromethanesulfonamido)-3-[(1S)-1-(4-fluorophenyl)ethoxy]phenyl]-1-methyl-1H-pyrazolo[4,3-c]pyridin-7-yl}-1H-pyrazol-1-yl)ethoxy]acetamido}-N-(2,6-difluorophenyl)-1-[(2S)-3,3-dimethyl-2-[(2S)-2-(methylamino)propanamido]butanoyl]pyrrolidine-2-carboxamide], the Kd was under 10 nM.

As to `COc1ccc(C(=O)N2CCC(n3cc(-c4cnc(N)c5c(-c6ccc(NS(=O)(=O)C(F)F)c(O[C@@H](C)c7ccc(F)cc7)c6)nn(C)c45)cn3)CC2)cc1N1CCC(=O)NC1=O` [Compound 1092, N-{4-[4-amino-7-(1-{1-[3-(2,4-dioxo-1,3-diazinan-1-yl)-4-methoxybenzoyl]piperidin-4-yl}-1H-pyrazol-4-yl)-1-methyl-1H-pyrazolo[4,3-c]pyridin-3-yl]-2-[(1S)-1-(4-fluorophenyl)ethoxy]phenyl}-1,1-difluoromethanesulfonamide], the Kd was under 10 nM.

For the compound `C[C@H](Oc1cc(-c2nn(C)c3c(-c4cnn(C5CCN(CCN6CCCC6COc6cccc7c6C(=O)N(C6CCC(=O)NC6=O)C7=O)CC5)c4)cnc(N)c23)ccc1NS(=O)(=O)C(F)F)c1ccc(F)cc1` (stereo partly drawn) [Compound 1120, N-(4-{4-amino-7-[1-(1-{2-[2-({[2-(2,6-dioxopiperidin-3-yl)-1,3-dioxo-2,3-dihydro-1H-isoindol-4-yl]oxy}methyl)pyrrolidin-1-yl]ethyl}piperidin-4-yl)-1H-pyrazol-4-yl]-1-methyl-1H-pyrazolo[4,3-c]pyridin-3-yl}-2-[(1S)-1-(4-fluorophenyl)ethoxy]phenyl)-1,1-difluoromethanesulfonamide], the dissociation constant Kd was under 10 nM.

Regarding `Cc1ncsc1-c1ccc(CNC(=O)[C@@H]2C[C@@H](O)CN2C(=O)[C@@H](NC(=O)C2(F)CC2)C(C)(C)C)c(OCCCCCCCCCn2cc(-c3cnc(N)c4c(-c5ccc(NS(=O)(=O)C(F)F)c(O[C@@H](C)c6ccc(F)cc6)c5)nn(C)c34)cn2)c1` [Compound 1138, (2S,4R)—N-[(2-{[9-(4-{4-amino-3-[4-(difluoromethanesulfonamido)-3-[(1S)-1-(4-fluorophenyl)ethoxy]phenyl]-1-methyl-1H-pyrazolo[4,3-c]pyridin-7-yl}-1H-pyrazol-1-yl)nonyl]oxy}-4-(4-methyl-1,3-thiazol-5-yl)phenyl)methyl]-1-[(2S)-2-[(1-fluorocyclopropyl) formamido]-3,3-dimethylbutanoyl]-4-hydroxypyrrolidine-2-carboxamide], the Kd was 10 to 1000 nM.

The record behind these values is patent US20250115598A1 (Anaxis Pharma Pty Ltd, priority 2021, published 2025).
